Laboratory results taken from patent publication US5798350A, “Dopamine receptor ligands” (Allelix Biopharmaceuticals, Inc., priority 1996, dated 1998).

Key:
[1] = target: T1, human D2 receptor (short isoform) (Homo sapiens, UniProt P14416); experiment: D2 receptor binding, displacement of 3H-spiperone (GH4C1 cells), for D2/D4 selectivity; settings: for D2/D4: D4 selectivity, ratio D2/D4
T1 construct: membrane homogenate, 3H-spiperone displacement
Description: (§1) The potency of the test compound to reduce ^3 H-spiperone binding directly correlated to its binding affinity for the receptor.
GH4 C1 (rat pituitary) cells stably transfected with the human D2 receptor (short isoform) were grown in CO2 independent media in roller bottles (1500 cm^2) for 10 days. 100 μM ZnSO4 was added to the cells (the D2 promoter being zinc inducible). After 16 hours, fresh media was added to allow the cells to recover for 24 hours. The cells were harvested using versene and then centrifuged in a Sorval centrifuge for 10 minutes, at 5000 rpm (GS3 rotor). Pellets were quickly frozen in liquid nitrogen and stored at -80° C. until used in the binding assays. When used in the assay, cells were thawed on ice for 20 minutes. […] 10 mL of incubation buffer was added to the pellets which were then vortexed, resuspended and homogenized with a Kinematica CH-6010 Kriens-LU homogenizer for 15 seconds at setting 7. The receptor protein concentration was determined using the Pierce BCA assay.
(§2) Total Spiperone Binding Assay
(§3) The incubation was started by the addition of 500 μl (50 μg protein) membrane homogenate to a solution of 900 μl incubation buffer and 100 μl (0.25 nM final conc.) ^3 H-spiperone (90 Ci/mmol Amersham diluted in borosilicate glass vial) in 12×75 mm polypropylene tubes. The tubes were vortexed and incubated at room temperature for 90 minutes. The binding reaction was stopped by filtering using a Brandell Cell Harvester. The samples were filtered under vacuum over glass fibre filters (Whatman GF/B) presoaked for 2 hours in 0.3% polyethyleneimine (PEI) in 50 mM Tris buffer (pH7.4). The filters were then washed 3 times with 5 mL ice cold 50 mM Tris buffer (pH7.4). Individual filter disks were put in scintillation vials (Biovials, Bechman). Ready Protein Plus liquid scintillant (5 mL, Beckman) was added and the vials counted by liquid scintillation spectrophotometry (Beckman LSC 6500) after equilibrating for three hours at room temperature to determine total binding (BT).
Non-Specific Binding Assay for D2
This assay employed the same procedures as the non-specific binding assay for D4 with the exception that 2 μM (final conc.) of (-) sulpiride (Research Chemicals Inc.) was used in place of dopamine.
(§4) Displacement Binding Assay
(§5) The incubation was started by the addition to 12×75 mm polypropylene tubes 500 μl (50 μg protein) membrane homogenate to a solution of 400 μl incubation buffer, 100 μl (0.25 final conc.) ^3 H-spiperone (90Ci/mmol, Amersham, diluted in borosilicate glass vial to) and […] of test compound that was prepared from 1 mM stock dissolved in DMSO and stored at -20° C. in polypropylene cryogenic storage vials until dilution in incubation buffer in borosilicate glass vials. The tubes were vortexed and incubated at room temperature for 90 minutes at which time the binding reaction was stopped by filtering. The filters were washed and counted using the same procedure as in the total binding assay described above to give the displacement binding value (BD).
Specific binding in the absence of test compound (BO) was the difference of total binding (BT) minus non-specific binding (NSB) and similarly specific binding (in the presence of test compound) (B) was the difference of displacement binding (BD) minus non-specific binding (NSB). IC50 was determined from an inhibition response curve, logit-log plot of %B/BO vs concentration of test compound.
(§6) Ki was calculated by the Cheng and Prustoff transformation: […]
(§7) where [L] is the concentration of ^3 H-spiperone used in the assay and KD is the to dissociation constant of ^3 H-spiperone determined independently under the same binding conditions.

[2] = target: T2, human D4 receptor (D4.2 sub-type) (Homo sapiens, UniProt P21917, DEL265-296); experiment: D4 receptor binding, displacement of 3H-spiperone; settings: for Ki: human D4 receptor, 3H-spiperone 0.25 nM
T2 construct: expressed in transfected cells; host or cells: HEK 298 (human embryonic kidney) cells, [sic]; homogenate of stably transfected cells
T2 sequence (P21917 with tags, fused parts or gaps DEL265-296): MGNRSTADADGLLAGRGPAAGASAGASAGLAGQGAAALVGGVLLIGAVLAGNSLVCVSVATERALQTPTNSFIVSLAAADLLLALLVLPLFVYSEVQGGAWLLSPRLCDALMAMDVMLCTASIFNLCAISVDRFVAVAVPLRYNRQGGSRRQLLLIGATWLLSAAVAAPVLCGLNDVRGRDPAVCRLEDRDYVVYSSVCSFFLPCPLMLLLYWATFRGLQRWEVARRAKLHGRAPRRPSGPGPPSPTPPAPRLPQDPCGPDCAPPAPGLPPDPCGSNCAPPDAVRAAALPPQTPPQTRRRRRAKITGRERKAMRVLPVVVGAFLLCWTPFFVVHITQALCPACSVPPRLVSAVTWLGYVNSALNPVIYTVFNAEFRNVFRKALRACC
Description: as §1
The cells were then centrifuged in a Sorval centrifuge for 10 minutes, 5000 rpm (GS3 rotor) and the pellets quickly frozen in liquid nitrogen and stored at -80° C. until used in binding assay. When used in the assay, cells were thawed on ice for 20 minutes and then 10 mL of incubation buffer (50 mM Tris, 1 mM EDTA, 4 mM MgCl2, 5 mM KCl, 1.5 mM CaCl2, 120 mM NaCl, pH7.4) was added. […] Concentration of receptor protein was determined using the Pierce BCA assay.
as §2
as §3, with “The” for “The incubation was started by the addition of 500 μl (50 μg protein) membrane homogenate to a solution of 900 μl incubation buffer and 100 μl (0.25 nM final conc.) ^3 H-spiperone (90 Ci/mmol Amersham diluted in borosilicate glass vial) in 12×75 mm polypropylene tubes. The”
Non-Specific Binding Assay for D4
The tubes were vortexed and incubated at room temperature for 90 minutes at which time the binding reaction was stopped by filtering. The filters were washed and counted using the same procedure as in the total binding assay described above to give the non-specific binding value (NSB).
as §4, §5
IC50 was determined from an inhibition response curve, logit-log plot of %B/BO vs concentration of test compound.
as §6, §7

D4 receptor = settings: background, cited from earlier work
[3] = compared with corresponding 4-methyl piperazine compound

T1 sequence (P14416 with tags, fused parts or gaps DEL242-270): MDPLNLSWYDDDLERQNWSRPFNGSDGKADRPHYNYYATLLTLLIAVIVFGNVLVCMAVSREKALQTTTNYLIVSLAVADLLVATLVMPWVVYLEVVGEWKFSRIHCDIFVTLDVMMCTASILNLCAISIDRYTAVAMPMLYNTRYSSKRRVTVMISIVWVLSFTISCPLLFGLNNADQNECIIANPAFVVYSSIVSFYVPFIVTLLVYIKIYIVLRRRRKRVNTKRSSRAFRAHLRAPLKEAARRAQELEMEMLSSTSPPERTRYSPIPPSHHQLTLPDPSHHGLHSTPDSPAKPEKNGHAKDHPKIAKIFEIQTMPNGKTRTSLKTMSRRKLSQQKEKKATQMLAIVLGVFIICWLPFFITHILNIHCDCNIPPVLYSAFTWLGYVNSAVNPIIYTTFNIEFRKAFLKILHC

Row | D2/D4 [1] | D4 selectivity ([1]; compared with clozapine) | Ki [2] [nM] | D4 affinity ([2]; compared with clozapine) | SMILES | D4 selectivity [1, 3] | D4 affinity and selectivity [2, 3] | D4 affinity and selectivity ([2]; compared with clozapine) | preference for binding the D4 receptor relative to the D2 receptor (D4 receptor) | Ki (D4 receptor; read-out: Ki value (D4 affinity)) [nM]
1 | 15.7 | better D4 selectivity than clozapine | 149 | – | Clc1ccc2c(c1)C(N1CCN(Cc3ccc4c(c3)OCO4)CC1)=Nc1cc(Cl)c(Cl)cc1N2 [2,7,8-trichloro-11-(4-piperonyl-1-piperazinyl)-5H-dibenzo[b,e][1,4]diazepine] | better D4selectivity than the corresponding 4-methyl piperazine compound | – | – | – | –
2 | 7.3 | – | 76 | – | Clc1ccc2c(c1)C(N1CCN(Cc3ccc4c(c3)OCO4)CC1)=Nc1ccccc1N2 [2-Chloro-11-(4-piperonyl)-1-piperazinyl-5H-dibenzo[b,e][1,4]diazepine] | – | – | – | – | –
3 | 5.1 | – | 15 | better D4 affinity than clozapine | COc1ccc2c(c1)C(N1CCN(Cc3ccc4c(c3)OCO4)CC1)=Nc1ccccc1N2 [2-methoxy-11-(4-piperonyl-1-piperazinyl)-5H-dibenzo[b,e][1,4]diazepine] | better D4selectivity than the corresponding 4-methyl piperazine compound | better D4 affinity and selectivity than the corresponding 4-methyl piperazine compound | – | – | –
4 | 281 | better D4 selectivity than clozapine | 15.3 | better D4 affinity than clozapine | O=[N+]([O-])c1ccc2c(c1)C=C(N1CCN(Cc3ccc4c(c3)OCO4)CC1)c1ccccc1S2 [2-nitro-10-(4-piperonyl-1-piperazinyl)dibenzo[b,f]thiepine] | better D4selectivity than the corresponding 4-methyl piperazine compound | – | better D4 affinity and selectivity than clozapine | – | –
5 | 1.9 | – | 73.5 | – | FC(F)(F)c1ccc2c(c1)C(N1CCN(Cc3ccc4c(c3)OCO4)CC1)=Nc1ccccc1N2 [2-trifluoromethyl-11-(4-piperonyl-1-piperazinyl)-5H-dibenzo[b,e][1,4]diazepine] | better D4selectivity than the corresponding 4-methyl piperazine compound | – | – | – | –
6 | 10.6 | better D4 selectivity than clozapine | 34 | – | Clc1cccc2c1Nc1ccccc1N=C2N1CCN(Cc2ccc3c(c2)OCO3)CC1 [4-chloro-11-(4-piperonyl-1-piperazinyl)-5H-dibenzo[b,e][1,4]diazepine] | – | – | – | – | –
7 | 99.2 | better D4 selectivity than clozapine | 57 | – | Clc1cccc2c1Oc1ccccc1N=C2N1CCN(Cc2ccc3c(c2)OCO3)CC1 [4-chloro-11-(4-piperonyl-1-piperazinyl)dibenz[b,f][1,4]oxazepine] | – | – | – | – | –
8 | 82.1 | better D4 selectivity than clozapine | 119 | – | N#Cc1cccc2c1Oc1ccccc1N=C2N1CCN(Cc2ccc3c(c2)OCO3)CC1 [4-cyano-11-(4-piperonyl-1-piperazinyl)dibenz[b,f][1,4]oxazepine] | – | – | – | – | –
9 | 53.2 | better D4 selectivity than clozapine | 24.5 | – | O=[N+]([O-])c1cccc2c1Oc1ccccc1N=C2N1CCN(Cc2ccc3c(c2)OCO3)CC1 [4-nitro-11-(4-piperonyl-1-piperazinyl)dibenz[b,f][1,4]oxazepine] | – | – | – | – | –
10 | 27.4 | better D4 selectivity than clozapine | 61 | – | Clc1cc2c(cc1Cl)Nc1ccccc1C(N1CCN(Cc3ccc4c(c3)OCO4)CC1)=N2 [7,8-dichloro-11-(4-piperonyl-1-piperazinyl)-5H-dibenzo[b,e][1,4]diazepine] | better D4selectivity than the corresponding 4-methyl piperazine compound | – | – | – | –
11 | 14.1 | better D4 selectivity than clozapine | 266 | – | Cc1cc2c(cc1C)Nc1ccccc1C(N1CCN(Cc3ccc4c(c3)OCO4)CC1)=N2 [7,8-dimethyl-11-(4-piperonyl)-1-piperazinyl)-5H-dibenzo[b,f][1,4]diazepine] | better D4selectivity than the corresponding 4-methyl piperazine compound | better D4 affinity and selectivity than the corresponding 4-methyl piperazine compound | – | – | –
12 | 63 | better D4 selectivity than clozapine | 24 | – | Clc1ccc2c(c1)N=C(N1CCN(Cc3ccc4c(c3)OCO4)CC1)c1ccccc1S2 [8-chloro-11-(4-piperonyl)-1-piperazinyl)dibenzo[b,f][1,4]thiazepine] | better D4selectivity than the corresponding 4-methyl piperazine compound | better D4 affinity and selectivity than the corresponding 4-methyl piperazine compound | – | – | –
13 | 9.8 | – | 143 | – | Cc1ccc2c(c1)N=C(N1CCN(Cc3ccc4c(c3)OCO4)CC1)c1ccccc1O2 [8-methyl-11-(4-piperonyl)-1-piperazinyl)dibenz[b,f][1,4]oxazepine] | better D4selectivity than the corresponding 4-methyl piperazine compound | better D4 affinity and selectivity than the corresponding 4-methyl piperazine compound | – | – | –
14 | 6 | – | 63 | – | c1ccc2c(c1)N=C(N1CCN(Cc3ccc4c(c3)OCO4)CC1)c1ccccc1N2 [11-(4-piperonyl)-1-piperazinyl-5H-dibenzo[b,e][1,4]diazepine] | better D4selectivity than the corresponding 4-methyl piperazine compound | better D4 affinity and selectivity than the corresponding 4-methyl piperazine compound | – | – | –
15 | – | – | – | – | CN1CCN(C2=Nc3cc(Cl)ccc3Oc3ccccc32)CC1 [isoloxapine] | – | – | – | about 10 fold | ~20
